Where two headings read alike, the source gives them in different places.
How the values were obtained:
L. major amastigote = L. major amastigote assay; assay type: cell-based; conditions: Leishmania major
P. falciparum W2 = P. falciparum W2 assay; assay type: cell-based; conditions: Plasmodium falciparum; strain W2; read-out: P. falciparum W2 (EC50)
[1] = test system: T. brucei brucei Lister 427; test: Trypanosome replication assay; assay type: cell-based, Trypanosoma brucei brucei; conditions: Trypanosoma brucei
[2] = Protein binding (Table 14); conditions: plasma
[3] = test system: endocytosis of transferrin; test: Receptor-mediated endocytosis of transferrin in the trypanosome; assay type: cell-based, T. brucei
[4] = male
[5] = Thermodynamic aqueous solubility; assay type: physicochemical
P. falciparum D6 = P. falciparum D6 assay; assay type: cell-based; conditions: Plasmodium falciparum; strain D6
T. cruzi = T. cruzi growth inhibition; assay type: cell-based, Trypanosoma cruzi; conditions: Trypanosoma cruzi
T. brucei brucei CA427 = test: Drug efficacy in a mouse model of human African trypanosomiasis
Text: The kinetoplast and nucleus can be tracked by microscopy during the cell cycle, which begins with trypanosomes harboring one nucleus (1N) and one kinetoplast (1K) (i.e., 1K1N cells). A kinetoplast that is replicating its (DNA) (i.e., kDNA) and increasing the organelle's mass is observed as an elongated kinetoplast (1Ke). Fission (segregation) of 1Ke kinetoplasts into two daughter kinetoplasts (2K) inside the same cell is coincident with the nuclear S-phase and produces 2K1N trypanosomes. Mitosis then occurs, yielding trypanosomes containing two kinetoplasts and two nuclei (2K2N). Following cell division, each daughter trypanosome has a 1K1N configuration of the organelles.
Swiss Webster (female) mice, aged 8-10 weeks, were intraperitoneally inoculated with 10^3 T. brucei CA427 strain using a 1 ml hypodermic syringe and 26G ½″ needle (day 0). The mice were assigned to control or NEU617 -treated groups (four per group). Treatment was initiated one-day post infection for two weeks. Control group received the vehicle only. Drug-treated mice were given 10 mg/kg NEU617 twice daily at 12 h interval (orally or intraperitoneally) based on their body weights. NEU617 was reconstituted in (i) DMSO for intraperitoneal (I.P.) administration, and (ii) N-methyl-2-pyrrolidone and polyethylene glycol 300 (1:9, v/v) for oral (P.O.) dosing. Drugs were prepared fresh daily and the concentration was adjusted so that the animals received <200 μl of solvent/dose/animal. […] Further dilutions of blood were made with bicine-buffered saline with glucose, as needed. Animals showing distress symptoms at any stage of the study were euthanized. All experiments were conducted following protocols approved by the Institutional Animal Care and Use Committee (IACUC).

L. major promastigote = L. major promastigote assay; assay type: cell-based; conditions: Leishmania major
[6] = Mouse oral pharmacokinetic study; assay type: in vivo, male BALB/c mice
Protocol: Test system. Healthy male BALB/c mice (8-12 weeks old) weighing between 20 to 35 g were procured from In vivo biosciences, Bengaluru, India. Maximum three mice were housed in each polycarbonate cage. […] The temperature and humidity were recorded by auto-controlled data logger system. Animals were provided laboratory rodent diet ([…], Bengaluru) ad libitum and were provided fresh water ad libitum (reverse osmosis water treated with UV light). Study Design. […] The dosing volume administered for was 10 mL/kg. Formulation Preparation. Formulation of NEU-617 was given orally. The strength of oral suspension formulation was 4 mg/mL. The weighed quantity (39.22 mg) of compound NEU-617 for p.o. dosing was added in a mortar. […] Sample Collection. […] The blood samples (approximately 60 μL) were collected from the retro-orbital plexus into labeled tubes, containing K2EDTA solution, as an anticoagulant. Plasma was harvested from the blood by centrifugation at 4000 rpm for 10 min at 4±2° C. and stored below -70° C. until bioanalysis. […] Following collection, the brain samples were washed by dipping in 20 mL of ice-cold phosphate buffer saline (pH 7.4), dried gently on a filter paper, weighed and placed in polypropylene tubes. Further brain samples were homogenized using ice-cold phosphate buffer saline (pH 7.4) and the total homogenate volume was thrice the brain weight. The brain samples were stored at -70° C. until bioanalysis. Data analysis. The Non-Compartmental-Analysis module in WinNonlin® (Version 5.2) was used to assess the pharmacokinetic parameters. Peak plasma concentrations (Cmax) and time for the peak plasma concentrations (Tmax) were the observed values. The areas under the concentration time curve (AUClast and AUCinf) were calculated by linear trapezoidal rule.

logD = assay type: physicochemical
[7] = male, BALB/c, mouse, brain, 40 mg/kg PO single dose
[8] = male, BALB/c, mouse, plasma, 40 mg/kg PO single dose

With `Fc1cccc(COc2ccc(Nc3ncnc4ccc(-c5cccc(N6CCOCC6)c5)cc34)cc2Cl)c1` [Compound 23a, N-(3-Chloro-4-((3-fluorobenzyl)oxy)phenyl)-6-(3-morpholinophenyl)quinazolin-4-amine] the “Human liver microsomes median CLint” value was 63.03 µL/min/mg, the EC50 (L. major amastigote) was 8000 nM and the EC50 (P. falciparum W2) was 680 nM. It also gave an EC50 ([1]; 48 h, concentration giving 50% inhibition of growth of T brucei brucei Lister 427 cells, 48 h, values ±7%, read-out: Tbb EC50) of 42 nM, an EC50 ([1]; read-out: EC50 expressed as ng/mL, T. brucei EC50 converted, FIG. 1 legend) of 22.7 ng/mL and a fraction unbound [2] of less than 0.01. For the same compound, the “effect on endocytosis of transferrin” value [3] was “no effect”, the “Male rat hepatocytes median CLint” value [4] was 44.5 μl/min/1E6 cells and the Solubility [5] was less than 1 µM. For the same compound, the EC50 (P. falciparum D6) was 230 nM, the EC50 (T. cruzi) was 1800 nM and the “delay of detection of trypanosomes in the blood” value (T. brucei brucei CA427; 10 mg/kg twice per day ip) was 24 h. For the same compound, the “survival on day 8” value (T. brucei brucei CA427; 10 mg/kg twice per day ip, all untreated mice had died) was “all alive”, the “mouse survival life span” value (T. brucei brucei CA427; 10 mg/kg twice per day ip, control group 5 days) was 9 days and the “time without parasites detected in the blood of infected mice” value (T. brucei brucei CA427; 40 mg/kg once per day from 24 h after infection, control positive on day 2) was 3 days. For the same compound, the drug-related toxicity (T. brucei brucei CA427; multiday regimen at 40 mg/kg) was “drug-related toxicity was observed”, the EC50 (L. major promastigote) was 3000 nM and the CNS fraction ([6]; 40 mg/kg single oral dose) was 5%. For the same compound, the “time plasma levels were in excess of the EC50” value ([6]; 40 mg/kg single oral dose) was greater than 12 h, the AUC(0-t) [6, 7] was 92.5 ng·h/mL and the Cmax [6, 7] was 26 ng/mL. It also gave a Tmax [6, 7] of 0.5 h, an AUC(0-inf) [6, 8] of 2000 ng·h/mL and an AUC(0-t) [6, 8] of 1950 ng·h/mL. For the same compound, the Cmax [6, 8] was 153 ng/mL, the Tmax [6, 8] was 2 h and the logD (logD) was 3.2.

Reference: patent US20150259331A1, “PROTOZOAN PARASITE GROWTH INHIBITORS” (Northeastern University, priority 2014, published 2015)
